From US20110100079A1, “METHOD FOR IMPARTING STRESS TOLERANCE TO PLANT” (priority 2007, published 2011) come the findings set out here.

Assay type in all cases: in vivo
Experiment [1] deals with “Momotaro” tomato. The experiment can be described thus: Standard test: standard extent of imparting plant salt stress tolerance. The following applies: 100 ppm sprayed onto leaves 10 ml/specimen, NaCl 3510 ppm in tap water, fresh weight after 2 weeks vs salt-stressed untreated control plot 1. The method, then: Standard Test (I) Plant Preparation A 50-cell tray is filled with potting soil (fertilizer components: N:P:K=0.4:1.9:0.6 (g)/kg potting soil); and seeds of a “Momotaro” tomato (Takii Co., Ltd.) are sowed, thinly covered with potting soil, and sufficiently irrigated to allow the seeds to sprout. When the leaves in the 2-leaf stage are fully unfolded, the soil on the tomato roots is washed away with running water, and a test is performed. For the potting soil, Kureha gardening soil manufactured by Kureha Corporation may be used. (II) Test Condition Setting The environmental conditions are controlled such that the temperature is 23° C., the relative humidity is 50%, the illuminance is 5000 Lux, and the daily light-dark cycle includes a 16-hour light period and an 8-hour dark period. Such environmental conditions can be obtained by, for example, controlling the temperature in a room or a climate chamber where the temperature and the relative humidity can be controlled, and controlling illuminance by a fluorescent light or the like. […] (III) Treatment with Plant Stress Tolerance Imparting Composition […] A known surfactant or a like material that barely affects the plant may be used in the preparation of an aqueous dispersion. Test plot: An aqueous solution or an aqueous dispersion of a test compound (sugar derivative-type surfactant) (concentration: 100 ppm) is sprayed onto the leaves in an amount of 10 ml per tomato specimen. […] NaCl is added to a solution culture medium (creating a salt stress), but no test compound (plant stress tolerance imparting composition) is given to the tomato. Control plot 2: No NaCl is added to a solution culture medium (creating no salt stress), and no test compound (plant stress tolerance imparting composition) is given to the tomato. (IV) Calculation of Standard Extent of Imparting Plant Salt Stress Tolerance (%) […] The plant stress level (standard plant salt stress level) attained in the above-described standard test is about 130%. In this regard, the standard plant salt stress level can be calculated according to Formula (ii)′ below.

Experiment [2] relates to “Momotaro” tomato. As to the kind of experiment: Example 2 temperature stress tolerance imparting test (tomato). The following applies: 2 weeks. The protocol: Other cultivation conditions were the same as the conditions of the temperature stress test. […] (2) Solution culture medium: […] Method of Temperature Stress Tolerance Imparting Test The temperature in a climatic chamber was controlled so as to be 10, 15, or 32° C. The environmental conditions were controlled so as to have an illuminance by a fluorescent light of 5000 Lux and a daily light-dark cycle of a 16-hour light period and a 8-hour dark period. In this test, a temperature of 23° C. at which the optimum growth was observed was regarded as a reference temperature (temperature stress-free test condition), and a stress was imposed by applying a temperature higher or lower than the reference temperature. A tomato as prepared above was planted in a 250 ml polyethylene bottle filled with the solution culture medium (½ Otsuka A formulation). A treatment solution as presented in Table 1 was sprayed onto the leaves or applied to the underground portion. […] Ten specimens were prepared for each of the test plot and the control plots, and a plant stress level and an extent of imparting plant stress tolerance were calculated according to Formula (ii) and (iii) above using as a fresh plant body weight the average of the fresh plant body weights of each specimen 2 weeks after the beginning of the test.

For experiment [3], the system named is “Momotaro” tomato. As to the kind of experiment: Example 4 salt stress tolerance imparting test (tomato, tap water + NaCl). To be noted: tap water + NaCl 3510 ppm, 2 weeks. From the text: NaCl concentration 3510 ppm (water potential by NaCl: […]) (4) Cultivation period: two weeks (5) Plant preparation: A 50-cell tray was filled with Kureha gardening soil manufactured by Kureha Corporation (fertilizer components: N:P:K=0.4:1.9:0.6 g/kg soil), and seeds of a “Momotaro” tomato were sowed, thinly covered with Kureha gardening soil, and sufficiently irrigated to allow the seeds to sprout. When the leaves in the 2-leaf stage fully unfolded, the soil on the tomato roots was carefully washed away with running water, and a test was performed. (6) The chemicals used and the concentration of a treatment solution were as in Example 1 (7) Amount of application: 10 ml/specimen for leaf spraying, 50 ml/specimen for fertigation Method of Salt Stress Tolerance Imparting Test […]

The test system of experiment [4] is Potato Variety: Toyoshiro. The experiment can be described thus: Example 5 drying stress tolerance imparting test (potato variety Toyoshiro). The following applies: 3 weeks. The protocol: Other cultivation conditions were the same as the conditions of the drying stress test. Drying stress conditions: soil pF value: 2.3, 2.5, or 2.9, cultivation temperature: 23° C., relative humidity: 50%, illuminance: 5000 Lux (fluorescent light), light/dark cycle: 16 hours/8 hours (2) Cultivation Period: 3 weeks (3) Soil: Kureha gardening soil manufactured by Kureha Corporation (fertilizer components: N:P:K=0.4:1.9:0.6 g/kg soil) (4) The chemicals used and the amount of a treatment solution applied were the same as in Example 3. Method of Drying Stress Tolerance Imparting Test A planter (60 cm) was filled with Kureha gardening soil manufactured by Kureha Corporation (fertilizer components: N:P:K=0.4:1.9:0.6 g/kg soil) in a glass greenhouse, tubers of a “Thyoshiro” potato were cut in half: and 5 pieces thereof were planted in the planter, thinly covered with Kureha gardening soil, and sufficiently watered to allow the tubers to sprout. When the leaves in the 3-leaf stage fully unfolded, the Solarium tuberosu was relocated on a plant culture rack in an air-conditioned room, and a test was initiated. […] From immediately after the beginning of the test, a treatment solution of Table 1 was sprayed onto the leaves or applied to the underground portions once a week. […] Five specimens (per planter) were prepared for each of the test plot and the control plots, plant bodies were collected 3 weeks after the beginning of the test such that the roots were not cut, the soil was washed away with running water, the fresh plant body weights were measured, and a plant stress level and an extent of imparting plant stress tolerance were calculated according to Formula (ii) and (iii) above using the average of the weights.

The mark [5] stands for this setting: pF 2.3, leaf, 100 ppm once a week.
The mark [6] stands for this setting: pF 2.3, leaf, 200 ppm once a week.

Take `OC[C@H]1O[C@H](OC[C@H]2O[C@H](O[C@]3(CO)O[C@H](CO)[C@@H](O)[C@@H]3O)[C@H](O)[C@@H](O)[C@@H]2O)[C@H](O)[C@@H](O)[C@H]1O` [Comparative product 4, Raffinose, reference compound]: the “Standard extent of imparting plant salt stress tolerance” value (“Standard extent” below) with “Momotaro” tomato [1] stood at 102%. The “Extent of imparting plant stress tolerance” value with “Momotaro” tomato [2] (32° C., leaf, 100 ppm) was determined as 103%; with “Momotaro” tomato [3] (leaf, 100 ppm), 102%; in experiment [4] (setting [5]), 103%.
With “Sorbitan monooleic acid ester [Product of present invention 11]”, the “Standard extent” value in the experiment on “Momotaro” tomato [1] stood at 112%. In addition, the “Extent of imparting plant stress tolerance” value came out at 113% in the experiment on “Momotaro” tomato [2] (32° C., leaf, 100 ppm); 112% in the experiment on “Momotaro” tomato [3] (leaf, 100 ppm); 113% in experiment [4] (setting [5]).
In the case of “Sucrose fatty acid ester (C18, HLB = 15) [Product of present invention 20]”, the “Standard extent” value with “Momotaro” tomato [1] is 116%. Further, the “Extent of imparting plant stress tolerance” value is given as 115% in the experiment on “Momotaro” tomato [2] (32° C., leaf, 100 ppm); 116% with “Momotaro” tomato [3] (leaf, 100 ppm); 118% in experiment [4] (setting [5]).
For the molecule “POE (20) sorbitan monooleic acid ester [Product of present invention 1]”, the “Standard extent” value in the experiment with “Momotaro” tomato [1] came to 113%. Besides, the “Extent of imparting plant stress tolerance” value with “Momotaro” tomato [2] (10° C., leaf, 100 ppm) came out at 125%; in the experiment with “Momotaro” tomato [2] (10° C., underground portion, 100 ppm), 140%; in the experiment on “Momotaro” tomato [2] (15° C., leaf, 100 ppm), 117%; with “Momotaro” tomato [2] (15° C., underground portion, 100 ppm) it was 130%; in the experiment with “Momotaro” tomato [2] (32° C., leaf, 1 ppm), 113%; with “Momotaro” tomato [2] (32° C., leaf, 10 ppm), 113%. The “Extent of imparting plant stress tolerance” value with “Momotaro” tomato [2] (32° C., leaf, 100 ppm) amounted to 114%; in the experiment with “Momotaro” tomato [2] (32° C., leaf, 1000 ppm), 119%; with “Momotaro” tomato [2] (32° C., underground portion, 100 ppm), 127%; in the experiment on “Momotaro” tomato [3] (leaf, 1 ppm) it was 112%; in the experiment with “Momotaro” tomato [3] (leaf, 10 ppm) it was 113%; in the experiment with “Momotaro” tomato [3] (leaf, 100 ppm), 113%. Moreover, the “Extent of imparting plant stress tolerance” value with “Momotaro” tomato [3] (leaf, 1000 ppm) turned out to be 119%; in the experiment with “Momotaro” tomato [3] (underground portion, 100 ppm), 130%; in experiment [4] (pF 2.3, leaf, 1 ppm once a week) it was 112%; in experiment [4] (pF 2.3, leaf, 10 ppm once a week), 113%; in experiment [4] (setting [5]) it was 113%; in experiment [4] (pF 2.3, leaf, 1000 ppm once a week), 119%. The “Extent of imparting plant stress tolerance” value in experiment [4] (pF 2.3, underground portion, 100 ppm once a week) is on record as 134%; in experiment [4] (pF 2.5, leaf, 100 ppm once a week) it was 115%; in experiment [4] (pF 2.5, underground portion, 100 ppm once a week), 127%; in experiment [4] (pF 2.9, leaf, 100 ppm once a week), 124%; in experiment [4] (pF 2.9, underground portion, 100 ppm once a week) it was 134%.
For the molecule “POE (6) sorbitan monooleic acid ester [Product of present invention 10]”, the “Standard extent” value in the experiment on “Momotaro” tomato [1] stood at 112%. Further, the “Extent of imparting plant stress tolerance” value with “Momotaro” tomato [2] (32° C., leaf, 100 ppm) is recorded as 114%; with “Momotaro” tomato [3] (leaf, 100 ppm), 112%; in experiment [4] (setting [5]), 113%.
“Alkyl (C12-14) polyglycoside [Product of present invention 16]”: in the experiment on “Momotaro” tomato [1], the “Standard extent” value came to 117%. In addition, the “Extent of imparting plant stress tolerance” value is given as 116% in the experiment on “Momotaro” tomato [2] (32° C., leaf, 100 ppm); 117% in the experiment on “Momotaro” tomato [3] (leaf, 100 ppm); 121% in experiment [4] (setting [5]).
“POE (20) sorbitan monolauric acid ester [Product of present invention 12]”: the “Standard extent” value in the experiment with “Momotaro” tomato [1] stood at 116%. Besides, the “Extent of imparting plant stress tolerance” value was found to be 117% in the experiment with “Momotaro” tomato [2] (32° C., leaf, 100 ppm); 121% in the experiment with “Momotaro” tomato [2] (32° C., leaf, 200 ppm); 116% in the experiment with “Momotaro” tomato [3] (leaf, 100 ppm); 117% in the experiment with “Momotaro” tomato [3] (leaf, 200 ppm); 117% in experiment [4] (setting [5]); 120% in experiment [4] (setting [6]).
Regarding “Sucrose fatty acid ester (C18, HLB = 9) [Product of present invention 18]”, in the experiment on “Momotaro” tomato [1], the “Standard extent” value was found to be 113%. Further, the “Extent of imparting plant stress tolerance” value in the experiment on “Momotaro” tomato [2] (32° C., leaf, 100 ppm) is 113%; in the experiment on “Momotaro” tomato [3] (leaf, 100 ppm), 113%; in experiment [4] (setting [5]), 115%.
As for “POE (20) sorbitan monostearic acid ester [Product of present invention 14]”, in the experiment with “Momotaro” tomato [1], the “Standard extent” value came to 114%. Also, the “Extent of imparting plant stress tolerance” value in the experiment on “Momotaro” tomato [2] (32° C., leaf, 100 ppm) was found to be 118%; with “Momotaro” tomato [3] (leaf, 100 ppm), 114%; in experiment [4] (setting [5]), 115%.
Take “Sucrose fatty acid ester (C18:1, HLB = 15) [Product of present invention 22]”: the “Standard extent” value with “Momotaro” tomato [1] was 118%. The “Extent of imparting plant stress tolerance” value in the experiment on “Momotaro” tomato [2] (32° C., leaf, 100 ppm) is 115%; in the experiment on “Momotaro” tomato [2] (32° C., leaf, 200 ppm) it was 113%; with “Momotaro” tomato [3] (leaf, 100 ppm) it was 118%; in the experiment with “Momotaro” tomato [3] (leaf, 200 ppm), 111%; in experiment [4] (setting [5]), 119%; in experiment [4] (setting [6]), 114%.
Turning to “POE (20) sorbitan monopalmitic acid ester [Product of present invention 13]”, the “Standard extent” value in the experiment with “Momotaro” tomato [1] was determined as 116%. Further, the “Extent of imparting plant stress tolerance” value in the experiment on “Momotaro” tomato [2] (32° C., leaf, 100 ppm) is listed as 116%; in the experiment with “Momotaro” tomato [3] (leaf, 100 ppm), 116%; in experiment [4] (setting [5]), 118%.
